Measurements taken from patent US20050075501A1, “Ammonium compounds bearing and electrophilic fluorine, reagent containing same, method using same and synthesis method for obtaining them” (priority 2000, published 2005).

Experiment: Solubility of N-fluorocinchonidinium tetrafluoroborate in solvents
Type: physicochemical
Settings: acetonitrile
Description: ^19F NMR (282 MHz, CD3CN/CCl3F): 37.71 (s, 1F); −154.52 (s, 1F); −154.60 (s, 3F). (CD3CN/TFA): 118.35 (s, 1F); −74.12 (s, 1F); −74.17 (s, 3F). FTIR: (ν N—F) 927 cm^−1 Melting point: 189+/−2° C. […] MS (FAB^+, glycerol) 313 (cation^+, 18%) 295 (cation-H2O, 100) . TLC: acetone/heptane: 9/1; Rf=0.3.

For C=CC1C[N+]2(F)CCC1CC2C(O)c1ccnc2ccccc12.F[B-](F)(F)F (stereo not shown) [N-fluorocinchonidinium Tetrafluoroborate], the Solubility was “ca. 200 mg/ml”.
